Where a name gives a salt, the structure may show the parent alone. Read-outs that look alike come from different tables or passages of the source.
Legend:
[1] = test system: common cutworm (third-instar larvae); experiment: Test 1 (Effect on Common Cutworm); assay type: in vivo; conditions: Spodoptera litura
Protocol: (§1) Compounds (a) through (g) described below were tested as comparative compounds in the same manner as the compounds of the present invention. All the tests were doubly carried out. Namely, each result was expressed by an average value of two data.
The emulsifiable concentrate of the test compound, prepared according to the method described in Formulation Example 1, was diluted with water to a specified concentration. Sweet potato leaves were sufficiently immersed in the dilution. The sweet potato leaves were dried and placed in a plastic cup having a diameter of 10 cm, and 10 third-instar larvae of common cutworm were set free in each cup. 48 hours after, the numbers of killed and living larvae were counted and the mortality was calculated.

yearling carps = experiment: Test 5 (Fish Toxicity); assay type: in vivo, carp
Protocol: as §1
A water tank having a width of 60 cm, a length of 30 cm and a height of 40 cm was filled with water, and 10 yearling carps having a body length of about 5 cm were set free in the tank and adapted to the environment in the tank. An acetone solution of a test compound was applied into water so as to become a concentration of 1 or 0.1 ppm in water by adding said acetone solution at a rate of one part by volume per 100 parts by volume of water. 48 hours after, the number of killed and living carps was counted and the effect of a test compound on carps was examined.

[2] = test system: green rice leafhopper (female adults); experiment: Test 2 (Effect on Green Rice Leafhopper); assay type: in vivo; conditions: Nephotettix cincticeps, 48 hours, female adults, read-out: Mortality (%)
Protocol: as §1
Four or five seedlings of paddy rice with three leaves were bundled, and thereon the same dilution of the emulsifiable concentrate as used in Test 1 was sprayed in an amount of 3 ml. The bundle was dried and covered with a metal net cylinder, and 10 female adults of green rice leafhopper were set free in the cylinder. 48 hours after, the number of killed adults was counted.

[3] = 20 ppm, 48 hours, third-instar larvae, read-out: Mortality (%)
[4] = 100 ppm, 48 hours, third-instar larvae, read-out: Mortality (%)

Work on `CNC(=O)ON=C(C)SC` [(d), Methomyl, reference compound] yielded a mortality at 20 ppm ([1]; 48 h) of 80% and a mortality at 100 ppm ([1]; 48 h) of 100%.
In the case of `Oc1c(Cl)c(Cl)c(Cl)c(Cl)c1Cl` [(f), PCP sodium salt, reference compound], the “Mortality(%) 48 Hours After” value (yearling carps; 0.1 ppm in water) is reported as 55% and the “Mortality(%) 48 Hours After” value (yearling carps; 1 ppm in water) is reported as 100%.
Work on `CC(C)(CCCc1cccc(Oc2ccccc2)c1)c1cccc(C(F)(F)F)c1` [Compound 2, 1-(3-phenoxyphenyl)-4-(3-trifluoromethylphenyl)-4-methylpentane] yielded a mortality at 20 ppm [2] of 80% and a mortality at 100 ppm [2] of 100%.
`CCOc1ccc(C(C)(C)CCCc2ccc(F)c(Oc3ccccc3)c2)cc1` [Compound 3, 1-(3-phenoxy-4-fluorophenyl)-4-(4-ethoxyphenyl)-4-methylpentane] gave a mortality at 20 ppm [1, 3] of 100%, a mortality at 100 ppm [1, 4] of 100% and a mortality at 20 ppm [2] of 100%. It also gave a mortality at 100 ppm [2] of 100%.
With `COc1ccc(C(C)(C)CCCc2cccc(Oc3ccccc3)c2)cc1` [Compound 5, 1-(3-phenoxyphenyl)-4-(4-methoxyphenyl)-4-methylpentane] the mortality at 20 ppm [2] was 100%, the mortality at 100 ppm [2] was 100% and the “Mortality(%) 48 Hours After” value (yearling carps; 0.1 ppm in water) was 0%. For the same compound, the “Mortality(%) 48 Hours After” value (yearling carps; 1 ppm in water) was 0%.
Compound `CCC(C)(CCCc1cccc(Oc2ccccc2)c1)c1ccc(Cl)cc1` (centres unmarked) [Compound 7, 1-(3-phenoxyphenyl)-4-(4-chlorophenyl)-4-methylhexane] has a mortality at 20 ppm [2] of 65% and a mortality at 100 ppm [2] of 100%.
Work on `CC(C)(CCCc1cccc(Oc2ccccc2)c1)c1ccc(Cl)cc1` [Compound 8, 1-(3-phenoxyphenyl)-4-(4-chlorophenyl)-4-methylpentane] yielded a mortality at 20 ppm [1, 3] of 95%, a mortality at 100 ppm [1, 4] of 100% and a mortality at 20 ppm [2] of 100%. The mortality at 100 ppm [2] was 100%, the “Mortality(%) 48 Hours After” value (yearling carps; 0.1 ppm in water) was 0% and the “Mortality(%) 48 Hours After” value (yearling carps; 1 ppm in water) was 0%.
In the case of `CCOc1ccc(C(C)(C)CCCc2cccc(C(=O)c3ccccc3)c2)cc1Br` [Compound 13, 1-(3-benzoylphenyl)-4-(3-bromo-4-ethoxyphenyl)-4-methylpentane], the mortality at 20 ppm [2] is reported as 40% and the mortality at 100 ppm [2] is reported as 100%.
Compound `CCOc1ccc(C(C)(C)CCCc2cccc(Cc3ccccc3)c2)cc1` [Compound 14, 1-(3-benzylphenyl)-4-(4-ethoxyphenyl)-4-methylpentane] has a mortality at 20 ppm [2] of 50% and a mortality at 100 ppm [2] of 90%.
`CCOc1ccc(C(C)(C)CCC(C#N)c2cccc(Oc3ccccc3)c2)cc1` (centres unmarked) [Compound 15, 1-(3-Phenoxyphenyl)-1-cyano-4-(4-ethoxyphenyl)-4-methylpentane] showed a mortality at 20 ppm [2] of 70% and a mortality at 100 ppm [2] of 95%.
Work on `CC(C)(CCCc1cccc(Oc2ccccc2)c1)c1ccccc1` [Compound 17] yielded a mortality at 20 ppm [1, 3] of 50%, a mortality at 100 ppm [1, 4] of 100% and a mortality at 20 ppm [2] of 95%. For the same compound, the mortality at 100 ppm [2] was 100%, the “Mortality(%) 48 Hours After” value (yearling carps; 0.1 ppm in water) was 0% and the “Mortality(%) 48 Hours After” value (yearling carps; 1 ppm in water) was 0%.
`CC(C)(CCCc1cccc(Oc2ccccc2)c1)c1ccc2ccccc2c1` [Compound 18, 1-(3-Phenoxyphenyl)-4-(2-naphthyl)-4-methylpentane] was tested, and the mortality at 20 ppm [2] was 100%, the mortality at 100 ppm [2] was 100% and the “Mortality(%) 48 Hours After” value (yearling carps; 0.1 ppm in water) was 0%. The “Mortality(%) 48 Hours After” value (yearling carps; 1 ppm in water) was 0%.
In the case of `CC(C)(CCCc1cccc(Oc2ccccc2)c1)c1cccc(Cl)c1` [Compound 21], the mortality at 20 ppm [2] is reported as 100%, the mortality at 100 ppm [2] is reported as 100% and the “Mortality(%) 48 Hours After” value (yearling carps; 0.1 ppm in water) is reported as 0%. For the same compound, the “Mortality(%) 48 Hours After” value (yearling carps; 1 ppm in water) was 0%.
`COc1ccc(C(C)(C)CCCc2cccc(Oc3ccccc3)c2)cc1OC` [Compound 22] gave a mortality at 20 ppm [2] of 50% and a mortality at 100 ppm [2] of 95%.
`CCC(CCCc1cccc(Oc2ccccc2)c1)c1ccc(Cl)cc1` (centres unmarked) [Compound 23] was tested, and the mortality at 20 ppm [2] was 75%, the mortality at 100 ppm [2] was 100% and the “Mortality(%) 48 Hours After” value (yearling carps; 0.1 ppm in water) was 0%. The “Mortality(%) 48 Hours After” value (yearling carps; 1 ppm in water) was 0%.
`CC(C)(CCCc1cccc(Oc2ccccc2)c1)c1ccc(OC(F)(F)C(Cl)Cl)cc1` [Compound 25] was tested, and the mortality at 20 ppm [2] was 90% and the mortality at 100 ppm [2] was 100%.
For `CC(C)(CCCc1cccc(Oc2ccccc2)c1)c1ccc(Cl)c(Cl)c1` [Compound 26], the mortality at 20 ppm [2] was 50%, the mortality at 100 ppm [2] was 100% and the “Mortality(%) 48 Hours After” value (yearling carps; 0.1 ppm in water) was 0%. For the same compound, the “Mortality(%) 48 Hours After” value (yearling carps; 1 ppm in water) was 0%.
Compound `CCOc1ccc(C(C)(C)CCCc2cccc(Oc3ccccc3)c2)cc1OCC` [Compound 28] has a mortality at 20 ppm [2] of 80% and a mortality at 100 ppm [2] of 100%.
Compound `CCOc1ccc(C(C)(C)CCCc2cccc(Sc3ccccc3)c2)cc1` [Compound 30] has a mortality at 20 ppm [2] of 70% and a mortality at 100 ppm [2] of 100%.
For `CC(C)(CCCc1cccc(Oc2ccccc2)c1)c1ccc(OC(F)F)cc1` [Compound 32], the mortality at 20 ppm [1, 3] was 100%, the mortality at 100 ppm [1, 4] was 100% and the mortality at 20 ppm [2] was 100%. The mortality at 100 ppm [2] was 100%.
In the case of `CCCOc1ccc(C(C)(C)CCCc2cccc(Oc3ccccc3)c2)cc1` [Compound 33], the mortality at 20 ppm [2] is reported as 100%, the mortality at 100 ppm [2] is reported as 100% and the “Mortality(%) 48 Hours After” value (yearling carps; 0.1 ppm in water) is reported as 0%. For the same compound, the “Mortality(%) 48 Hours After” value (yearling carps; 1 ppm in water) was 0%.
`CCOc1ccc(C(C)(C)CCCc2cccc(C(=O)c3ccccc3)c2)cc1` [Compound 34] showed a mortality at 20 ppm [2] of 50% and a mortality at 100 ppm [2] of 100%.
`CCOc1ccc(C(C)(C)CCCc2ccc(F)c(Sc3ccccc3)c2)cc1` [Compound 36] gave a mortality at 20 ppm [2] of 100% and a mortality at 100 ppm [2] of 100%.
For `CC(C)(CCCc1cccc(Oc2ccccc2)c1)c1ccc(OC(F)=CCl)cc1` [Compound 37], the mortality at 20 ppm [1, 3] was 80% and the mortality at 100 ppm [1, 4] was 100%.
For `CCOc1ccc(C2(CCCc3ccc(F)c(Oc4ccccc4)c3)CCC2)cc1` [Compound 38, 1-(3-Phenoxy-4-fluorophenyl)-3-[1-(4-ethoxyphenyl)cyclobutyl]propane], the mortality at 20 ppm [2] was 100%, the mortality at 100 ppm [2] was 100% and the “Mortality(%) 48 Hours After” value (yearling carps; 0.1 ppm in water) was 0%. For the same compound, the “Mortality(%) 48 Hours After” value (yearling carps; 1 ppm in water) was 0%.
`CCOc1ccc(C(C)(C)CCCc2cccc(Oc3ccc(Cl)cc3)c2)cc1` [Compound 39] was tested, and the mortality at 20 ppm [2] was 90% and the mortality at 100 ppm [2] was 100%.
For `CCOc1ccc(C(C)(C)CCCc2cccc(Oc3ccc(F)cc3)c2)cc1` [Compound 41], the mortality at 20 ppm [2] was 100%, the mortality at 100 ppm [2] was 100% and the “Mortality(%) 48 Hours After” value (yearling carps; 0.1 ppm in water) was 0%. The “Mortality(%) 48 Hours After” value (yearling carps; 1 ppm in water) was 0%.
Work on `CCOc1ccc(C(C)(C)CCCc2cccc(Oc3ccccc3F)c2)cc1` [Compound 42] yielded a mortality at 20 ppm [2] of 100% and a mortality at 100 ppm [2] of 100%.
In the case of `C#CCOc1ccc(C(C)(C)CCCc2cccc(Oc3ccccc3)c2)cc1` [Compound 45], the mortality at 20 ppm [1, 3] is reported as 80%, the mortality at 100 ppm [1, 4] is reported as 100% and the mortality at 20 ppm [2] is reported as 80%. It also gave a mortality at 100 ppm [2] of 100%.
Compound `CC(C)(CCCc1cccc(Oc2ccccc2)c1)c1ccc(Oc2ccccc2)cc1` [Compound 46] has a mortality at 20 ppm [1, 3] of 85%, a mortality at 100 ppm [1, 4] of 100% and a mortality at 20 ppm [2] of 100%. It also gave a mortality at 100 ppm [2] of 100%.
`CC(C)(CCCc1cccc(Oc2ccccc2)c1)c1ccc(Br)cc1` [Compound 47] showed a mortality at 20 ppm [2] of 75% and a mortality at 100 ppm [2] of 100%.
With `CC(C)C(C)(CCCc1cccc(Oc2ccccc2)c1)c1ccc(Cl)cc1` (centres unmarked) [Compound 49] the mortality at 20 ppm [2] was 60% and the mortality at 100 ppm [2] was 100%.
`Clc1ccc(C2(CCCc3cccc(Oc4ccccc4)c3)CC2(Cl)Cl)cc1` (centres unmarked) [Compound 50, 1-(3-Phenoxyphenyl)-3-[1-(4-chlorophenyl)-2,2-dichlorocyclopropyl]-propane] was tested, and the mortality at 20 ppm [2] was 50% and the mortality at 100 ppm [2] was 100%.
`C#CC(CCC(C)(C)c1ccc(OCC)cc1)c1ccc(F)c(Oc2ccccc2)c1` (centres unmarked) [Compound 51, 1-(3-Phenoxy-4-fluorophenyl)-1-ethynyl-4-(4-ethoxyphenyl)-4-methylpentane] was tested, and the mortality at 20 ppm [2] was 60% and the mortality at 100 ppm [2] was 90%.
Compound `CC(C)(CCCc1cccc(Oc2ccccc2)c1)c1ccc(C#N)cc1` [Compound 58, 1-(3-Phenoxyphenyl)-4-(4-cyanophenyl)-4-methylpentane] has a mortality at 20 ppm [1, 3] of 80%, a mortality at 100 ppm [1, 4] of 100% and a mortality at 20 ppm [2] of 100%. It also gave a mortality at 100 ppm [2] of 100%.
`CC(C)=Cc1ccc(C(C)(C)CCCc2cccc(Oc3ccccc3)c2)cc1` [Compound 59] was tested, and the mortality at 20 ppm [2] was 70% and the mortality at 100 ppm [2] was 100%.
For `CC(C)(CCC(C#N)c1ccc(F)c(Oc2ccccc2)c1)c1ccc(Cl)cc1` (centres unmarked) [Compound 62, 1-(3-Phenoxy-4-fluorophenyl)-1-cyano-4-(4-chlorophenyl)-4-methylpentane], the mortality at 20 ppm [2] was 45% and the mortality at 100 ppm [2] was 100%.
`CC(C)(CCCc1cccc(Oc2ccccc2)c1)c1ccc(C=C(Cl)Cl)cc1` [Compound 63] was tested, and the mortality at 20 ppm [1, 3] was 70%, the mortality at 100 ppm [1, 4] was 100% and the mortality at 20 ppm [2] was 100%. For the same compound, the mortality at 100 ppm [2] was 100%.
In the case of `CCOc1ccc(C(C)(C)CCCc2ccc(F)c(Oc3ccc(F)cc3)c2)cc1Cl` [Compound 67], the mortality at 20 ppm [1, 3] is reported as 60%, the mortality at 100 ppm [1, 4] is reported as 100% and the mortality at 20 ppm [2] is reported as 100%. For the same compound, the mortality at 100 ppm [2] was 100%, the “Mortality(%) 48 Hours After” value (yearling carps; 0.1 ppm in water) was 0% and the “Mortality(%) 48 Hours After” value (yearling carps; 1 ppm in water) was 0%.
In the case of `CC(C)(CCCc1cccc(Oc2ccccc2)c1)c1ccc(C(=O)OCCF)cc1` [Compound 68], the mortality at 20 ppm [2] is reported as 40% and the mortality at 100 ppm [2] is reported as 80%.
With `CC(C)(CCCc1cccc(Oc2ccccc2)c1)c1ccc(C(=O)OC(F)(F)C(F)F)cc1` [Compound 69] the mortality at 20 ppm [2] was 75% and the mortality at 100 ppm [2] was 100%.
